From US20230172961A1 (priority 2020, published 2023)
“Also recorded” adds a separate entry of the source. Where two headings read alike, the source gives them in different places.

Tests used:
[1] = molecular target: T1, SARS-CoV-2 RdRp (nsp12, nsp7 and nsp8) (Severe acute respiratory syndrome coronavirus 2, UniProt P0DTD1); type: biochemical
[2] = molecular target: SARS-CoV RdRp (nsp12, nsp7 and nsp8) (Severe acute respiratory syndrome coronavirus, UniProt P0C6X7); type: biochemical
[3] = test system: RdRp of SARS-CoV and/or SARS-CoV-2; type: biochemical
Thermo Sequenase = test: DNA polymerase extension reaction, MALDI-TOF MS, high fidelity polymerase; details: 10 µM nucleotide, DNA template and primer
Therminator IX = details: 10 µM nucleotide, DNA template and primer, MALDI-TOF MS
Therminator II = Therminator II (Thermococcus sp., UniProt Q56366, A485L/D141A/E143A/Y409V); details: 10 µM nucleotide, DNA template and primer, MALDI-TOF MS
Chain of Therminator II (Q56366 whole entry D141A/E143A/Y409V/A485L): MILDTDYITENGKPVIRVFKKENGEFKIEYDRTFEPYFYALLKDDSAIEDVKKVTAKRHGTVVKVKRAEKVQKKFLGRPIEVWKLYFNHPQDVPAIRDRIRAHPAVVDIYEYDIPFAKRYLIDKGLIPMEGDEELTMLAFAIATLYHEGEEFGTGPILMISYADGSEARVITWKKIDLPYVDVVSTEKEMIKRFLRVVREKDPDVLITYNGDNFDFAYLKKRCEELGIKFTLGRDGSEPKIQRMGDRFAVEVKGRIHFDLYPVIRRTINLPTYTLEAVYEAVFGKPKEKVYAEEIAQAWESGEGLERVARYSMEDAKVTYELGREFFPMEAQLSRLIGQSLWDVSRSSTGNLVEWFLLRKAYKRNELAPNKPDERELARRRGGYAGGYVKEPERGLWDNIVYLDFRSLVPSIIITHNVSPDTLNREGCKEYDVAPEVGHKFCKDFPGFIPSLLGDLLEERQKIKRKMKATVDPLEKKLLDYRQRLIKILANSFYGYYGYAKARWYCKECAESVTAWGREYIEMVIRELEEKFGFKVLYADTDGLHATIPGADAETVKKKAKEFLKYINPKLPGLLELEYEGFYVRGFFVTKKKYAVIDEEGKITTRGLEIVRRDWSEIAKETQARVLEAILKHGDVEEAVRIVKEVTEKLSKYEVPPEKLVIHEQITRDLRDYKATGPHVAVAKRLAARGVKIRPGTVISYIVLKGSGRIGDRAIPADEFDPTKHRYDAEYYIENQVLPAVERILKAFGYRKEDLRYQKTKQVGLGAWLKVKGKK

[4] = molecular target: SARS-CoV-2 exonuclease complex (nsp14/nsp10) (Severe acute respiratory syndrome coronavirus 2, UniProt P0DTD1); test: Inhibition of SARS-CoV-2 exonuclease, MALDI-TOF MS; type: biochemical
[5] = molecular target: T1, SARS-CoV-2 RdRp (nsp12, nsp7 and nsp8); details: kinetic studies of Gordon et al 2020a, b; RDV-TP with MERS-CoV and SARS-CoV-2 RdRps; cited from earlier work
[6] = 10 µM inhibitor, 30 nM nsp14/nsp10, 37° C., 15 min
[7] = 150 µM inhibitor, 30 nM nsp14/nsp10, 37° C., 15 min
[8] = 30 µM inhibitor, 30 nM nsp14/nsp10, 37° C., 15 min
[9] = 100 µM inhibitor, 30 nM nsp14/nsp10, 37° C., 15 min
[10] = 300 µM inhibitor, 30 nM nsp14/nsp10, 37° C., 15 min

## CC(Cn1cnc2c(N)ncnc21)OCP(=O)(O)OP(=O)(O)OP(=O)(O)O (stereo in doubt) [TFV-DP, Tenofovir diphosphate]
[1]
  termination of the polymerase reaction: obligate terminator for the RdRp

## CO[C@H]1[C@@H](O)[C@H](n2ccc(=O)[nH]c2=O)O[C@@H]1COP(=O)(O)OP(=O)(O)OP(=O)(O)O [3′-OMe-UTP, 3′-0-methyluridine-5′-triphosphate]
[2]
  incorporation efficiency: lower incorporation efficiency
  termination of the polymerase reaction: obligate terminator
[3]
  termination of the polymerase reaction (summary of the 11 tested): complete termination of the polymerase reaction

## Cc1cn([C@H]2C[C@H](O)[C@@H](COP(=O)(O)OP(=O)(O)OP(=O)(O)O)O2)c(=O)[nH]c1=O [dTTP]
Thermo Sequenase
  incorporation and block of further nucleotide incorporation: incorporation continued past the first A in the template
Therminator IX
  incorporation and block of further nucleotide incorporation: incorporation continued past the first A in the template
Therminator II
  incorporation and block of further nucleotide incorporation: incorporation continued past the first A in the template

## CO[C@@H]1[C@H](O)[C@@H](COP(=O)(O)OP(=O)(O)OP(=O)(O)O)O[C@H]1n1ccc(=O)[nH]c1=O [2′-OMe-UTP, 2′-O-methyluridine-5′-triphosphate]
[2]
  termination of the polymerase reaction: significant polymerase reaction termination
[3]
  termination of the polymerase reaction (summary of the 11 tested): incomplete or delayed termination
[1]
  termination of the polymerase reaction: significant termination after the first incorporation step

## COC(=O)N[C@H](C(=O)N1CCC[C@H]1c1nc2cc([C@H]3CC[C@H](c4cc5nc([C@@H]6CCCN6C(=O)[C@@H](NC(=O)OC)[C@@H](C)OC)[nH]c5cc4F)N3c3cc(F)c(N4CCC(c5ccc(F)cc5)CC4)c(F)c3)c(F)cc2[nH]1)[C@@H](C)OC [Pibrentasvir]
[4]; 0.1 µM inhibitor, 30 nM nsp14/nsp10, 37° C., 15 min
  inhibition of exonuclease activity: shows inhibition of the exonuclease activity
[4]; [6]
  inhibition of exonuclease activity: significantly increased inhibition of exonuclease activity
[4]; [7]
  inhibition of exonuclease activity: able to inhibit the exonuclease

## biotin-16-aminoallyl-2′-deoxyuridine-5′-triphosphate [Biotin-dUTP]
[3]
  termination of the polymerase reaction (summary of the 11 tested): complete termination of the polymerase reaction
[1]
  relative incorporation efficiency in equimolar combinations: lower incorporation efficiency than the natural UTP
  termination of the polymerase reaction: terminator of the polymerase reaction

## O=c1ccn([C@@H]2O[C@H](COP(=O)(O)OP(=O)(O)OP(=O)(O)O)[C@@H](O)[C@H]2F)c(=O)[nH]1 [2′-F-dUTP, 2′-fluoro-2′-deoxyuridine-5′-triphosphate]
[2]
  incorporation efficiency: incorporated very efficiently
[3]
  termination of the polymerase reaction (summary of the 11 tested): did not terminate the polymerase reaction
[1]
  relative incorporation efficiency in equimolar combinations: incorporated far better than 2′-O-Me-UTP and dUTP
  termination of the polymerase reaction in equimolar combinations: not terminators of the polymerase reaction

## Nc1ccn([C@@H]2CS[C@H](COP(=O)(O)OP(=O)(O)OP(=O)(O)O)O2)c(=O)n1 [Lam-TP, Lamivudine triphosphate]
[1]
  incorporation efficiency: relatively poor incorporation

## Cc1cn([C@H]2C[C@H](F)[C@@H](COP(=O)(O)OP(=O)(O)OP(=O)(O)O)O2)c(=O)[nH]c1=O [3′-F-dTTP, 3′-fluoro-3′-deoxythymidine triphosphate]
[2]
  termination of the polymerase reaction: permanent terminators
[1]
  incorporation efficiency: efficient substrates of the RdRp
  termination of the polymerase reaction: no further incorporation

## desthiobiotin-16-aminoallyl-uridine-5′-triphosphate [Desthio-UTP]
[3]
  termination of the polymerase reaction (summary of the 11 tested): did not terminate the polymerase reaction
[1]
  incorporation efficiency: incorporated
  termination of the polymerase reaction: does not terminate the polymerase reaction

## O=c1ccn([C@H]2C[C@H](O)[C@@H](COP(=O)(O)OP(=O)(O)OP(=O)(O)O)O2)c(=O)[nH]1 [dUTP]
[1]; 250 µM each nucleotide, equimolar combinations (FIG. 36)
  relative incorporation efficiency in equimolar combinations: lower incorporation efficiency than the natural UTP

## Sofosbuvir
[1]; […], RDV-TP together with UTP
  extension of the RNA template-loop-primer: complete conversion

## N[C@@H]1[C@H](O)[C@@H](COP(=O)(O)OP(=O)(O)OP(=O)(O)O)O[C@H]1n1ccc(=O)[nH]c1=O [2′-NH2-dUTP, 2′-amino-2′-deoxyuridine-5′-triphosphate]
[3]
  termination of the polymerase reaction (summary of the 11 tested): did not terminate the polymerase reaction
[1]
  relative incorporation efficiency in equimolar combinations: more efficiently incorporated than 2′-O-Me-UTP and dUTP
  termination of the polymerase reaction in equimolar combinations: not terminators of the polymerase reaction

## Cc1cccc(C)c1OCC(=O)N[C@@H](Cc1ccccc1)[C@@H](O)C[C@H](Cc1ccccc1)NC(=O)[C@H](C(C)C)N1CCCNC1=O [Lopinavir]
[4]; [6]
  inhibition of exonuclease activity: small inhibition of the exonuclease activity
[4]; [8]
  inhibition of exonuclease activity: fragmentation peaks are further reduced
[4]; [9]
  inhibition of exonuclease activity: fragmentation peaks are further reduced
[4]; [10]
  inhibition of exonuclease activity: complete inhibition of exonuclease activity

## CC(C)c1nc(CN(C)C(=O)N[C@H](C(=O)N[C@@H](Cc2ccccc2)C[C@H](O)[C@H](Cc2ccccc2)NC(=O)OCc2cncs2)C(C)C)cs1 [Ritonavir]
[4]; [6]
  inhibition of exonuclease activity: shows inhibition of the exonuclease activity
[4]; [8]
  inhibition of exonuclease activity: fragmentation peaks are further reduced
[4]; [9]
  inhibition of exonuclease activity: fragmentation peaks are further reduced
[4]; [10]
  inhibition of exonuclease activity: complete inhibition of exonuclease activity

## Cc1cn([C@H]2C=C[C@@H](COP(=O)(O)OP(=O)(O)OP(=O)(O)O)O2)c(=O)[nH]c1=O [Sta-TP, Stavudine 5′-triphosphate]
[3]
  termination of the polymerase reaction (summary of the 11 tested): complete termination of the polymerase reaction
[1]
  incorporation efficiency: very efficiently incorporated
  termination of the polymerase reaction: complete termination of the polymerase reaction
  termination of the polymerase reaction at 10-fold lower concentration: resulted in termination of the polymerase reaction

## O=c1ccn([C@@H]2O[C@H](COP(=O)(O)OP(=O)(O)OP(=O)(O)O)[C@@H](O)[C@H]2O)c(=O)[nH]1 [UTP]
[2]
  termination of the polymerase reaction: primer extension by 2 UTPs occurred

## Nc1nc(=O)n([C@@H]2CS[C@H](COP(=O)(O)OP(=O)(O)OP(=O)(O)O)O2)cc1F [Ec-TP, Emtricitabine triphosphate]
[1]
  incorporation efficiency: relatively poor incorporation

## COC(=O)N[C@H](C(=O)N1CC2(CC2)C[C@H]1c1nc(-c2ccc3c(c2)C(F)(F)c2cc(-c4ccc5[nH]c([C@@H]6[C@H]7CC[C@H](C7)N6C(=O)[C@@H](NC(=O)OC)C(C)C)nc5c4)ccc2-3)c[nH]1)C(C)C [Ledipasvir]
[4]; [7]
  inhibition of exonuclease activity: able to inhibit the exonuclease

## COc1cc2c(cc1Cc1cccc(Cl)c1F)c(=O)c(C(=O)O)cn2[C@H](CO)C(C)C [Elvitegravir]
[4]; concentration not stated for this compound (FIG. 59d)
  inhibition of exonuclease activity: able to inhibit the exonuclease

## N#C[C@@]1(c2ccc3c(N)ncnn23)O[C@H](COP(=O)(O)OP(=O)(O)OP(=O)(O)O)[C@@H](O)[C@H]1O [RDV-TP]
[5]
  incorporation efficiency relative to the natural nucleotide: higher incorporation efficiency than ATP

## COC(=O)N[C@H](C(=O)N1CCC[C@H]1C(=O)Nc1ccc([C@@H]2CC[C@@H](c3ccc(NC(=O)[C@@H]4CCCN4C(=O)[C@@H](NC(=O)OC)C(C)C)cc3)N2c2ccc(C(C)(C)C)cc2)cc1)C(C)C [Ombitasvir]
[4]; 1 µM inhibitor, 30 nM nsp14/nsp10, 37° C., 15 min
  inhibition of exonuclease activity: shows inhibition of the exonuclease activity
[4]; [6]
  inhibition of exonuclease activity: significantly increased inhibition of exonuclease activity
[4]; [7]
  inhibition of exonuclease activity: able to inhibit the exonuclease

## Nc1nc(O)c2ncn(COC(CO)COP(=O)(O)OP(=O)(O)OP(=O)(O)O)c2n1 (centres unmarked) [Gan-TP, Ganciclovir 5′-triphosphate]
[2]
  termination of the polymerase reaction: terminate the polymerase reaction
[3]
  termination of the polymerase reaction (summary of the 11 tested): complete termination of the polymerase reaction
[1]
  termination of the polymerase reaction: complete termination; also recorded: better terminators than Ent-TP

## Cc1cn([C@H]2C[C@H](N=[N+]=[N-])[C@@H](COP(=O)(O)OP(=O)(O)OP(=O)(O)O)O2)c(=O)[nH]c1=O [3′-N3-dTTP, 3′-N3-3′-deoxythymidine triphosphate]
[2]
  termination of the polymerase reaction: permanent terminators
[1]
  incorporation efficiency: incorporation efficiency was lower than for 2′-F,Me-UTP and 3′-F-dTTP
  termination of the polymerase reaction: no evidence of further incorporation

## Cidofovir diphosphate [Cid-DP]
[2]
  termination of the polymerase reaction: terminate the polymerase reaction
[3]
  termination of the polymerase reaction (summary of the 11 tested): incomplete or delayed termination
[1]
  termination of the polymerase reaction: delayed termination
  termination of the polymerase reaction at 10-fold lower concentration: resulted in termination of the polymerase reaction
